From US9951128B2, “Caninized anti-NGF antibodies and methods thereof” (ZOETIS SERVICES LLC, priority 2012, dated 2018)

Assay: Mean group body weight in the rat MIA study
Assay type: in vivo, Rat Ola Wistar
Conditions: morphine 10 mg/kg SC, mAbs 8 mg/kg SC
Text: Mean group body weight for all groups (g).

With `CN1CC[C@]23c4c5ccc(O)c4O[C@H]2[C@@H](O)C=C[C@H]3[C@H]1C5` [Morphine] the “Mean group body weight, Baseline” value was 178.5 g, the “Mean group body weight, Day 7” value was 256.2 g and the “Mean group body weight, Day 14” value was 285.1 g. The “Mean group body weight, Day 21” value was 300.6 g and the “Mean group body weight, Day 27” value was 316 g.
